{"source": "patent US20260364099A1", "about": "“GLYCYRRHIZIC ACID HYDROGELS” (KATHOLIEKE UNIVERSITEIT LEUVEN, priority 2023, published 2026)", "key": {"Streptococcus": {"system": "Streptococcus", "assay": "Antibacterial effect (no effect, bacteriostatic, bactericidal); growth inhibition followed by biocidal plating", "assay_type": "cell-based, Streptococcus pyogenes LMG 14237", "details": "bactericidal = 3 LOG reduction compared to the inoculum", "experimental": "(§1) The below table summarises the antibacterial effect (no effect, bacteriostatic, bactericidal) of the glycyrrhizic acid hydrogels on different pathogens tested.\nThe bactericidal effect of 0.5 mL/mL of 5 wt % hydrogel A (shown in grey bars with circles) is compared to growth medium with an adjusted pH (pH 5.2) that is associated with the acidifying effect of hydrogel A (shown in white bars with squares). ns: p>0.05, ****p<0.0001. […]\n(§2) Three different formulations of the glycyrrhizic acid hydrogels were made in dH2O: (i) Hydrogel C with pH=3, (ii) Hydrogel B with pH=3.8 and (iii) Hydrogel A with pH=4.2. pH was measured at 70 °C and varied using HCl or NaOH to acidify or alkalify the formulation to the desired pH-value. […]\n(§3) To avoid evaporation, the plates were sealed using a membrane (Greiner Bio-one NV). After 24 hours of incubation (37 °C, 200 rpm), the OD595 was measured and relative OD595 was calculated by dividing the OD595 by the average OD595 of the growth control (=growth of cells in MHB without glycyrrhizic acid). […]"}, "Enterococcus": {"system": "Enterococcus", "assay": "Antibacterial effect (no effect, bacteriostatic, bactericidal); growth inhibition followed by biocidal plating", "assay_type": "cell-based, Enterococcus faecalis LMG8148", "details": "bactericidal = 3 LOG reduction compared to the inoculum", "experimental": "as §1\nThe bactericidal effect of 0.5 mL/mL of 10 wt % hydrogel C (shown in grey bars with circles) is compared to growth medium with an adjusted pH (pH 4.6) that is associated with the acidifying effect of hydrogel C (shown in white bars with squares). ****p<0.0001. […]\nas §2, §3"}, "MRSA": {"system": "MRSA", "assay": "Growth inhibition evaluation (relative OD595)", "assay_type": "cell-based, methicillin resistant S. aureus (MRSA), clinical isolate", "details": "25 mg/mL glycyrrhizic acid in solution or 0.5 mL/mL of 5 wt % hydrogel, 24 h, 37 °C", "experimental": "(§4) The growth inhibiting effect of 25 mg/mL glycyrrhizic acid in solution and 0.5 mL/mL of 5 wt % hydrogel A, corresponding with a total of 25 mg/mL of glycyrrhizic acid in the system are shown in grey bars with circles. Both are compared to suitable controls (shown in white bars with squares) i.e. growth media with an adjusted pH that is associated with the acidifying effect of glycyrrhizic acid in solution (pH 7.4) and hydrogel A (pH 5.2) but without the presence of glycyrrhizic acid in solution or hydrogel A, respectively. ns: p>0.05, *p<0.05, **p<0.01, ****p<0.0001. […]\nas §2\n(§5) To avoid evaporation, the plates were sealed using a membrane (Greiner Bio-one NV). After 24 hours of incubation (37 °C, 200 rpm), the OD595 was measured and relative OD595 was calculated by dividing the OD595 by the average OD595 of the growth control (=growth of cells in MHB without glycyrrhizic acid)."}, "[1]": {"system": "Staphylococcus epidermidis", "assay": "Growth inhibition evaluation (relative OD595)", "assay_type": "cell-based, clinical isolate", "details": "25 mg/mL glycyrrhizic acid in solution or 0.5 mL/mL of 5 wt % hydrogel, 24 h, 37 °C", "experimental": "as §4, §2, §5"}, "Acinetobacter baumanni": {"system": "Acinetobacter baumanni", "assay": "Growth inhibition evaluation (relative OD595)", "assay_type": "cell-based, Acinetobacter baumannii RD5SR3", "details": "25 mg/mL glycyrrhizic acid in solution or 0.5 mL/mL of 5 wt % hydrogel, 24 h, 37 °C", "experimental": "as §4, §2, §5"}, "Pseudomonas aeruginosa": {"system": "Pseudomonas aeruginosa", "assay": "Growth inhibition evaluation (relative OD595)", "assay_type": "cell-based, Pseudomonas aeruginosa LMG9009", "details": "25 mg/mL glycyrrhizic acid in solution or 0.5 mL/mL of 5 wt % hydrogel, 24 h, 37 °C", "experimental": "as §4, with “B,” for “A,”, “B” for “A”, “5)” for “5.2)”, “p>0.05,” for “p>0.05, *p<0.05, **p<0.01,”\nas §2, §5"}, "Escherichia coli [2]": {"system": "Escherichia coli", "assay": "Growth inhibition evaluation (relative OD595)", "assay_type": "cell-based, Escherichia coli UTI89", "details": "50 mg/mL glycyrrhizic acid in solution or 0.5 mL/mL of 10 wt % hydrogel, 24 h, 37 °C", "experimental": "as §4, with “of 50” for “of 25”, “of 10” for “of 5”, “hydrogel C,” for “hydrogel A,”, “hydrogel C” for “hydrogel A”, “(pH 4.6)” for “(pH 5.2)”, “p>0.05,” for “p>0.05, *p<0.05, **p<0.01,”\nas §2, §5"}, "Klebsiella pneumoniae": {"system": "Klebsiella pneumoniae", "assay": "Growth inhibition evaluation (relative OD595)", "assay_type": "cell-based, Klebsiella pneumoniae ATCC13883", "details": "50 mg/mL glycyrrhizic acid in solution or 0.5 mL/mL of 10 wt % hydrogel, 24 h, 37 °C", "experimental": "as §4, with “of 50” for “of 25”, “of 10” for “of 5”, “hydrogel C,” for “hydrogel A,”, “hydrogel C” for “hydrogel A”, “(pH 4.6)” for “(pH 5.2)”, “p>0.05,” for “p>0.05, *p<0.05, **p<0.01,”\nas §2, §5"}, "Klebsiella aerogenes": {"system": "Klebsiella aerogenes", "assay": "Growth inhibition evaluation (relative OD595)", "assay_type": "cell-based, Klebsiella aerogenes ATCC13048", "details": "50 mg/mL glycyrrhizic acid in solution or 0.5 mL/mL of 10 wt % hydrogel, 24 h, 37 °C", "experimental": "as §4, with “of 50” for “of 25”, “of 10” for “of 5”, “hydrogel C,” for “hydrogel A,”, “hydrogel C” for “hydrogel A”, “(pH 4.6)” for “(pH 5.2)”, “p>0.05,” for “p>0.05, *p<0.05, **p<0.01,”\nas §2, §5"}, "S. pyogenes": {"system": "S. pyogenes", "assay": "Growth inhibition evaluation (relative OD595)", "assay_type": "cell-based, Streptococcus pyogenes LMG 14237", "experimental": "The glycyrrhizic acid concentration is calculated based on the percentage of glycyrrhizic acid in the gel and the amount of this gel used in the assay. Note that the pH at the gel surface is lower than the initial pH of the growth medium on top of the gel due to the acidifying effect of the hydrogel. This pH difference is dependent of the pH of the hydrogel, the percentage of glycyrrhizic acid in the hydrogel and the amount of hydrogel used. The different hydrogels are indicated by color: white circles represent the hydrogel A, grey circles represent hydrogel B and black circles represent the hydrogel C. The 2 grey dots at pH 7.0 in the plot represent the (lack of) activity of glycyrrhizic acid in solution. Of all nine pathogens tested, only Streptococcus pyogenes was inhibited by 50 mg/mL glycyrrhizic acid in solution.\nThe growth inhibiting effect of 25 mg/mL glycyrrhizic acid in solution and 0.5 mL/mL of 5 wt % hydrogel A, corresponding with a total of 25 mg/mL of glycyrrhizic acid in the system are shown in grey bars with circles. […]\nas §2"}, "E. faecalis": {"system": "E. faecalis", "assay": "Growth inhibition evaluation (relative OD595)", "assay_type": "cell-based, Enterococcus faecalis LMG8148", "details": "25 mg/mL glycyrrhizic acid in solution or 0.5 mL/mL of 5 wt % hydrogel, 24 h, 37 °C", "experimental": "as §4, §2, §5"}, "Escherichia coli [3]": {"system": "Escherichia coli", "details": "cited from earlier work"}, "Proteus vulgaris": {"system": "Proteus vulgaris", "details": "cited from earlier work"}, "Candida albicans": {"system": "Candida albicans", "details": "cited from earlier work"}, "Streptococci": {"system": "Streptococci", "details": "cited from earlier work"}}, "data": [{"smiles": "CC1(C)[C@@H](O[C@H]2O[C@H](C(=O)O)[C@@H](O)[C@H](O)[C@H]2O[C@@H]2O[C@H](C(=O)O)[C@@H](O)[C@H](O)[C@H]2O)CC[C@]2(C)[C@H]3C(=O)C=C4[C@@H]5C[C@@](C)(C(=O)O)CC[C@]5(C)CC[C@@]4(C)[C@]3(C)CC[C@@H]12", "note": "[glycyrrhizic acid]", "values": [{"measurement": "antibacterial effect (no effect, bacteriostatic, bactericidal)", "setting": "Streptococcus", "result": "Bacterio-"}, {"measurement": "antibacterial effect (no effect, bacteriostatic, bactericidal)", "setting": "Enterococcus", "result": "No effect"}, {"measurement": "growth inhibiting activity", "setting": "MRSA", "result": "lack of/limited growth inhibiting activity"}, {"measurement": "growth inhibiting activity", "setting": "[1]", "result": "lack of/limited growth inhibiting activity"}, {"measurement": "growth inhibiting activity", "setting": "Acinetobacter baumanni", "result": "lack of/limited growth inhibiting activity"}, {"measurement": "growth inhibiting activity", "setting": "Pseudomonas aeruginosa", "result": "lack of/limited growth inhibiting activity"}, {"measurement": "growth inhibiting activity", "setting": "Escherichia coli [2]", "result": "lack of/limited growth inhibiting activity"}, {"measurement": "growth inhibiting activity", "setting": "Klebsiella pneumoniae", "result": "lack of/limited growth inhibiting activity"}, {"measurement": "growth inhibiting activity", "setting": "Klebsiella aerogenes", "result": "lack of/limited growth inhibiting activity"}, {"measurement": "complete growth inhibition (FIG. 1)", "setting": "S. pyogenes; 50 mg/mL glycyrrhizic acid in solution, only Streptococcus pyogenes of nine pathogens", "result": "inhibited"}, {"measurement": "growth inhibiting activity", "setting": "S. pyogenes; S. pyogenes, 25 mg/mL glycyrrhizic acid in solution or 0.5 mL/mL of 5 wt % hydrogel, 24 h, 37 °C", "result": "lack of/limited growth inhibiting activity"}, {"measurement": "growth inhibiting activity", "setting": "E. faecalis", "result": "lack of/limited growth inhibiting activity"}, {"measurement": "antibacterial potential in solution", "setting": "Escherichia coli [3]", "result": "lack of activity"}, {"measurement": "antibacterial potential in solution", "setting": "Proteus vulgaris", "result": "lack of activity"}, {"measurement": "antibacterial potential in solution", "setting": "Candida albicans", "result": "lack of activity"}, {"measurement": "antibacterial potential in solution", "setting": "Streptococci", "result": "lack of activity"}]}]}
